Test results from patent US20230348401A1, “Inhibitors of Glucose-6-phosphate Dehydrogenase and Uses Thereof” (The Trustees of Princeton University, priority 2020, published 2023).
Values joined by “and” are separate entries in the source; they are usually repeats but may differ in a detail not shown here. Identical values can stand only once. Like-named read-outs stand apart in the source and are kept apart here.

Molecular target: G6PD (Homo sapiens, UniProt P11413)
Assay: G6PD enzymatic activity by diaphorase-coupled assay
[1] = Normalized in vitro IC50, Table 1, diaphorase-coupled biochemical assay, normalization to an intraplate control

G6PD, sequence (P11413 28-515): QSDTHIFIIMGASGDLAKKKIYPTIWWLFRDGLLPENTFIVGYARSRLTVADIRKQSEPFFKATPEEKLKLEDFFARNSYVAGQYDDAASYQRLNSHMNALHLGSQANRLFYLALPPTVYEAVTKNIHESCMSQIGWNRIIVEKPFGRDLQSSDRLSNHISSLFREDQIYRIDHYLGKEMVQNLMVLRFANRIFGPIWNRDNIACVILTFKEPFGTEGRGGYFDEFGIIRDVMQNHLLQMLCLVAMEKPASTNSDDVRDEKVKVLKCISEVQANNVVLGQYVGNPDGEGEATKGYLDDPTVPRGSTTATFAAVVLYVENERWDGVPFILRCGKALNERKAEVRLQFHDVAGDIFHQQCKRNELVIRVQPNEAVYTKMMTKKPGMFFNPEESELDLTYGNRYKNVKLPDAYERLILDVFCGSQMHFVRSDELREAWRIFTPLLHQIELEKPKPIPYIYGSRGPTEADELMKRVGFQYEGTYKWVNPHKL

Row | Structure (SMILES) | IC50 [µM] | IC50 [1]
1 | N#Cc1cc(Nc2ncc3c(n2)CCCCC3=O)cc(OCC23C[C@H]4C[C@@H](C2)C[C@@H](C3)C4)c1 [Compound 0105] | > 1000 | 
2 | CC(C)(C)COc1cc(C#N)cc(Nc2ncc3c(n2)CCCCC3=O)c1 [Compound 0106] | > 1000 | 
3 | N#Cc1cc(Nc2ncc3c(n2)CCCCC3=O)cc(OCc2cccnc2)c1 [Compound 0118] | < 1 | 
4 | N#Cc1cc(Nc2ncc3c(n2)CCCCC3=O)cc(OCc2ccccn2)c1 [Compound 0121] | < 1 | 
5 | COc1ccccc1COc1cc(C#N)cc(Nc2ncc3c(n2)CCCCC3=O)c1 [Compound 0122] | < 1 | 
6 | N#Cc1cc(Nc2ncc3c(n2)CCCCC3=O)cc(OCc2cnoc2)c1 [Compound 0123] | < 1 | 
7 | N#Cc1cc(Nc2ncc3c(n2)CCCCC3=O)cc(OCC2CCOCC2)c1 [Compound 0124] | < 1 | 
8 | COCCOc1cc(C#N)cc(Nc2ncc3c(n2)CCCCC3=O)c1 [Compound 0125] | < 1 | 
9 | N#Cc1cc(Nc2ncc3c(n2)CCCCC3=O)cc(OCCN)c1 [Compound 0128] | 1 to 1000 | 
10 | N#Cc1cc(Nc2ncc3c(n2)CCCNC3=O)cs1 [Compound 0135] | 1 to 1000 | 
11 | N#Cc1cc(Nc2ncc3c(n2)CCCCC3C(C#N)C#N)cs1 (centres unmarked) [Compound 0136] | 1 to 1000 | 
12 | CCCc1cc(C#N)cc(Nc2ncc3c(n2)CCCCC3=O)c1 [Compound 0161] | 1 to 1000 | 
13 | CCCCc1cc(C#N)cc(Nc2ncc3c(n2)CCCCC3=O)c1 [Compound 0162] | 1 to 1000 | 
14 | N#Cc1cc(CS(=O)(=O)C(F)(F)F)cc(Nc2ncc3c(n2)CCCCC3=O)c1 [Compound 0163] | 1 to 1000 | 
15 | Cc1cccc(Nc2ncc3c(n2)CCCC3=O)c1 [KG-0051-0] |  | 1 to 1000 µM
16 | Cc1cccc(Nc2ccc3c(n2)CCCC3=O)c1 [KG-0052] | > 1000 | 
17 | Cc1cccc(Nc2ccc3c(c2)CCCC3=O)c1 [KG-0054] | > 1000 | 
18 | Cc1cccc(Nc2ncc3c(n2)CCNC3=O)c1 [KG-0055-0] | 1 to 1000 | 
19 | Cc1ccccc1Nc1ncc2c(n1)CCCC2=O [KG-0056-0A] |  | 1 to 1000 µM
20 | Cc1cccc(Nc2ccc3c(c2)CCNC3=O)c1 [KG-0057] | > 1000 | 
21 | Cc1cccc(Nc2ncc3c(n2)CCCC3=O)c1C [KG-0060-0] |  | > 1000 µM
22 | O=C1CCCc2nc(Nc3cccc(F)c3)ncc21 [KG-0061-0] |  | < 1 µM
23 | N#Cc1cccc(Nc2ncc3c(n2)CCCC3=O)c1 [KG-0062-0] |  | < 1 µM
24 | O=C1CCCc2nc(Nc3cccc(C(F)(F)F)c3)ncc21 [KG-0063-0] |  | 1 to 1000 µM

Row | Structure (SMILES) | IC50 [µM] | IC50 [1]
25 | COC(=O)c1cccc(Nc2ncc3c(n2)CCCC3=O)c1 [KG-0064-0] |  | 1 to 1000 µM
26 | O=C1CCCc2nc(Nc3cccc(Cl)c3)ncc21 [KG-0065-0] |  | < 1 µM
27 | Cc1cccc(Nc2ncc3c(n2)CCC3=O)c1 [KG-0138-0] |  | 1 to 1000 µM
28 | Cc1cccc(Oc2ncc3c(n2)CCCC3=O)c1 [KG-0141-0] | > 1000 | 
29 | O=C1CCCc2nc(NCc3cccnc3)ncc21 [KG-0162-0] | 1 to 1000 | 
30 | O=C1CCCc2nc(NCc3ccncc3)ncc21 [KG-0163-0] | 1 to 1000 | 
31 | O=C1CCCc2nc(NCc3ccccc3)ncc21 [KG-0164-0] |  | 1 to 1000 µM
32 | CC(Nc1ncc2c(n1)CCCC2=O)c1ccccc1 (centres unmarked) [KG-0165-0] |  | 1 to 1000 µM and > 1000 µM
33 | O=C1CCCc2nc(Nc3ccc4cc[nH]c4c3)ncc21 [KG-0166-0] |  | 1 to 1000 µM
34 | O=C1CCCc2nc(Nc3cccc(Br)c3)ncc21 [KG-0167-0A] |  | 1 to 1000 µM
35 | O=C1CCCc2nc(Nc3cccc(Br)c3)ncc21 [KG-0167] |  | 1 to 1000 µM
36 | O=C1CCCc2nc(Nc3ccc4[nH]ccc4c3)ncc21 [KG-0168-0] |  | 1 to 1000 µM
37 | CN(c1cccc(C#N)c1)c1ncc2c(n1)CCCC2=O [KG-0176] |  | > 1000 µM
38 | C#Cc1cccc(Nc2ncc3c(n2)CCCC3=O)c1 [KG-0183-0] |  | 1 to 1000 µM
39 | N#Cc1cccc(Nc2ncc3c(n2)CCCCC3=O)c1 [KG-0184-0A] |  | < 1 µM
40 | COc1cccc(Nc2ncc3c(n2)CCCC3=O)c1 [KG-0185-0] |  | 1 to 1000 µM
41 | O=C1CCCc2nc(Nc3cccc(O)c3)ncc21 [KG-0186-0A] |  | < 1 µM
42 | O=C1CCCc2nc(Nc3ccccc3)ncc21 [KG-0187-0] |  | 1 to 1000 µM
43 | Cc1ccc(Nc2ncc3c(n2)CCCC3=O)cc1C [KG-0188-0] |  | 1 to 1000 µM
44 | N#Cc1cccc(Nc2ncc3c(n2)COCC3=O)c1 [KG-0190-0] | 1 to 1000 | 
45 | N#Cc1cncc(Nc2ncc3c(n2)CCCC3=O)c1 [KG-0198-0] | 1 to 1000 | 
46 | O=C1CCCc2nc(Nc3cccc(C4CC4)c3)ncc21 [KG-0203-0] |  | 1 to 1000 µM
47 | CC#Cc1cccc(Nc2ncc3c(n2)CCCC3=O)c1 [KG-0204-0] |  | 1 to 1000 µM
48 | CC1CCc2nc(Nc3cccc(C#N)c3)ncc2C1=O (centres unmarked) [KG-0205-0] |  | < 1 µM

Row | Structure (SMILES) | IC50 [µM] | IC50 [1]
49 | N#Cc1cccc(Nc2ncc3c(n2)CCC(Br)C3=O)c1 (centres unmarked) [KG-0206-0] |  | < 1 µM
50 | O=C1CCCc2nc(Nc3nc4ccccc4[nH]3)ncc21 [KG-0209-0] |  | 1 to 1000 µM
51 | O=C1CCCc2nc(Nc3nc4ccccc4s3)ncc21 [KG-0211-0] |  | > 1000 µM
52 | O=C1CCCc2nc(Nc3ncco3)ncc21 [KG-0213-0] | > 1000 | 
53 | O=C1CCCc2nc(Nc3nccs3)ncc21 [KG-0214-0] | 1 to 1000 | 
54 | O=C1CCCc2nc(Nc3ccon3)ncc21 [KG-0215-0] |  | 1 to 1000 µM
55 | O=C1CCCc2nc(Nc3cc[nH]n3)ncc21 [KG-0216-0] |  | > 1000 µM
56 | Cc1csc(Nc2ncc3c(n2)CCCC3=O)n1 [KG-0219-0] | 1 to 1000 | 
57 | Cc1cc(Nc2ncc3c(n2)CCCC3=O)no1 [KG-0220-0] | 1 to 1000 | 
58 | O=C1CCCc2nc(Nc3ccc4nc[nH]c4c3)ncc21 [KG-0223-0] |  | 1 to 1000 µM
59 | O=C1CCCc2nc(Nc3ccc4ncsc4c3)ncc21 [KG-0224-0] |  | 1 to 1000 µM
60 | O=C1CCCc2nc(Nc3ccc4scnc4c3)ncc21 [KG-0227-0] |  | 1 to 1000 µM
61 | O=C1CCCc2nc(Nc3ccc4occc4c3)ncc21 [KG-0228-0] |  | 1 to 1000 µM
62 | O=C1CCCc2nc(Nc3ccc4cn[nH]c4c3)ncc21 [KG-0229-0] |  | 1 to 1000 µM
63 | O=C1CCCc2nc(Nc3ccc4[nH]ncc4c3)ncc21 [KG-0232-0] |  | < 1 µM
64 | O=C(O)c1cccc(Nc2ncc3c(n2)CCCC3=O)c1 [KG-0237-0] |  | > 1000 µM
65 | NC(=O)c1cccc(Nc2ncc3c(n2)CCCC3=O)c1 [KG-0238-0] |  | 1 to 1000 µM
66 | CCOc1cccc(Nc2ncc3c(n2)CCCC3=O)c1 [KG-0239-0] |  | 1 to 1000 µM
67 | O=C1CCCc2nc(Nc3cccc(CO)c3)ncc21 [KG-0240-0] |  | 1 to 1000 µM
68 | O=C1CCCc2nc(Nc3cccc(-c4nnn[nH]4)c3)ncc21 [KG-0241-0] |  | 1 to 1000 µM
69 | O=C1CCCc2nc(Nc3cccc(C4(O)COC4)c3)ncc21 [KG-0242-0] |  | 1 to 1000 µM
70 | N#Cc1cccc(Nc2ncc3c(n2)CCCS3(=O)=O)c1 [KG-0249-0] | 1 to 1000 | 
71 | O=C1CCCc2nc(Nc3cccc(Oc4ccccc4)c3)ncc21 [KG-0251-0] |  | 1 to 1000 µM
72 | O=C1CCCc2nc(Nc3cccc(OCc4ccccc4)c3)ncc21 [KG-0252-0] |  | 1 to 1000 µM

Row | Structure (SMILES) | IC50 [µM] | IC50 [1]
73 | N#Cc1cc(Nc2ncc3c(n2)CCCC3=O)cs1 [KG-0254-0A] | < 1 | 
74 | COc1cc(C#N)cc(Nc2ncc3c(n2)CCCC3=O)c1 [KG-0255-0] |  | < 1 µM
75 | COc1cc(Cl)cc(Nc2ncc3c(n2)CCCC3=O)c1 [KG-0256-0] |  | < 1 µM
76 | O=C(Nc1ncc2c(n1)CCCC2=O)c1ccccc1 [KG-0258-0] |  | > 1000 µM
77 | CO/N=C1\CCCc2nc(Nc3cccc(C#N)c3)ncc21 [KG-0260-0] | > 1000 | 
78 | N#Cc1cccc(Nc2ncc3c(n2)CCCC3O)c1 (centres unmarked) [KG-0261-10] | 1 to 1000 | 
79 | N#Cc1cc(Cl)cc(Nc2ncc3c(n2)CCCC3=O)c1 [KG-0265-0] |  | < 1 µM
80 | CCNC(=O)Nc1cccc(Nc2ncc3c(n2)CCCC3=O)c1 [KG-0283-0] |  | 1 to 1000 µM
81 | N#Cc1cccc(Nc2ncc3c(n2)CCC(O)C3=O)c1 (centres unmarked) [KG-0315-0A] |  | < 1 µM
82 | N#Cc1cc(Nc2ncc3c(n2)CCC(Br)C3=O)cs1 (centres unmarked) [KG-0316] | < 1 | 
83 | N#Cc1cc(Nc2ncc3c(n2)CCC(O)C3=O)cs1 (centres unmarked) [KG-0317] | < 1 | 
84 | N#Cc1cc(Nc2ncc3c(n2)CCC(C(F)(F)F)C3=O)cs1 (centres unmarked) [KG-0318] | < 1 | 
85 | COC1CCc2nc(Nc3csc(C#N)c3)ncc2C1=O (centres unmarked) [KG-0321] | < 1 | 
86 | N#Cc1cccc(Nc2ncc3c(n2)CCCC(O)C3=O)c1 (centres unmarked) [KG-0331] | 1 to 1000 | 
87 | O=C1c2cnc(Nc3cccc(Cl)c3)nc2CCCC1O (centres unmarked) [KG-0332-0] | 1 to 1000 | 
88 | N#Cc1cc(Nc2ncc3c(n2)CCCC(O)C3=O)cs1 (centres unmarked) [KG-0333-0] | < 1 | 
89 | N#Cc1cccc(Nc2ncc3c(n2)CCCC(Br)C3=O)c1 (centres unmarked) [KG-0334] | < 1 | 
90 | O=C1c2cnc(Nc3cccc(Cl)c3)nc2CCCC1Br (centres unmarked) [KG-0335-0] | < 1 | 
91 | N#Cc1cc(Nc2ncc3c(n2)CCCC(Br)C3=O)cs1 (centres unmarked) [KG-0336-0] | < 1 | 
92 | N#Cc1cc(Nc2ncc3c(n2)CCCCC3=O)c(C(F)(F)F)s1 [KG-0337-0A] | 1 to 1000 | 
93 | N#Cc1cc(Nc2ncc3c(n2)CCCC(C(F)(F)F)C3=O)cs1 (centres unmarked) [KG-0337-0] | < 1 | 
94 | N#Cc1cc(Nc2ncc3c(n2)CCCCC3=O)cs1 [KG-0338] | < 1 | 
95 | O=C1CCCCc2nc(Nc3cccc(F)c3)ncc21 [KG-0339] |  | < 1 µM
